Reference: patent US5352690A, “1,2,4-trioxygenated benzene derivatives useful as leukotriene antagonists” (Eli Lilly and Company, priority 1992, dated 1994)
Counter-ions that a name gives are not always drawn.

Assays:
[1] = molecular target: [^3 H]-LTB4 binding, guinea pig lung membranes (Cavia porcellus, UniProt H0VYV8); test: [^3 H]-LTB4 Radioligand Binding Assay in Guinea Pig Lung Membranes; details: read-out: Binding Guinea Pig Lung pKi (converted)
[2] = molecular target: [^3 H]-LTB4 binding to receptors on human neutrophils (Homo sapiens, UniProt Q15722); test: biochemical; details: [^3 H]-LTB4 2.65 nM (20 μl), 4° C., 10 minutes
Sequence of [^3 H]-LTB4 binding to receptors on human neutrophils (Q15722 whole entry): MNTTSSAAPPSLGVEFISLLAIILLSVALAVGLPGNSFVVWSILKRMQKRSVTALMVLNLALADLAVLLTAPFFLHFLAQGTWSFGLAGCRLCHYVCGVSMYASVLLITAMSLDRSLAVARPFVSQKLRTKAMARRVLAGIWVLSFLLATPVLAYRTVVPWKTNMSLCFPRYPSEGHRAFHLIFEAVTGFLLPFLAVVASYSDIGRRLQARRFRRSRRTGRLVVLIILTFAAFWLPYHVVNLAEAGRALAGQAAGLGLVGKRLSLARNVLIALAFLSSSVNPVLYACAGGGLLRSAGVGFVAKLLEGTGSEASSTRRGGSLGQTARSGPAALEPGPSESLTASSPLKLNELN
Experimental: The effectiveness of the compounds of the present invention to inhibit binding of [^3 H]-LTB4 to human neutrophils was measured by using an adaptation of a radioligand binding assay developed by Goldman, D. W. and Goetzl, E. J.: Specific binding of leukotriene B4 to receptors on human polymornuclear leukocytes. J. Immunol. 129: 1600-1604(1982). Heparinized venous blood was drawn from normal human volunteers and neutrophils isolated by standard techniques of Ficoll-Hypaque centrifugation, dextran 70 sedimentation and hypotonic lysis. […] The binding assay was carried out in silanized 12×75 mm glass tubes by adding in the following order: 10 μl DMSO containing different amounts of test compound,20 μl of 2.65 nM [^3 H]-LTB4 and 500 μl of the cells suspended in Hanks' balanced salt solution containing 0.1% ovalbumin (2×10^7 cells/ml). Tubes were incubated at 4° C. for 10 minutes and the reaction terminated by isolating the cells with a Brandel MB-48R harvester. Radioactivity bound to the cells was measured by scintillation spectrometry. Nonspecific binding was determined by measuring the amount of label bound when a greater than 2000-fold excess of nonradioactive ligand was added. Appropriate corrections for nonspecific binding were made when analyzing the data.

Sequence of [^3 H]-LTB4 binding, guinea pig lung membranes (H0VYV8 1-348): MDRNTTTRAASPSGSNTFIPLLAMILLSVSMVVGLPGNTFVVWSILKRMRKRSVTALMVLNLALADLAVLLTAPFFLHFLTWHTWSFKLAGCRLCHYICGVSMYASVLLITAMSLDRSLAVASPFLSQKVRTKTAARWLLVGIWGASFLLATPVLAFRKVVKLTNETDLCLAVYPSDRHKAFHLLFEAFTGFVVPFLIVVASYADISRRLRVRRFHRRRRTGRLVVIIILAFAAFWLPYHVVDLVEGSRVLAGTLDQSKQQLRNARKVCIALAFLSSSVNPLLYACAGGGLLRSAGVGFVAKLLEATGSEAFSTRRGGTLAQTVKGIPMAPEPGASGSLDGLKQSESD

Row | SMILES | Ki [1] | IC50 [2]
1 | CCOc1cc(CC)c(OCCCCCC(C)(C)c2nn[nH]n2)cc1O [sodium salt] | 12.3 nM | –
2 | CCc1cc(OC)c(O)cc1OCCCCCC(C)(C)c1nn[nH]n1 [sodium salt] | 22.9 nM | –
3 | CCc1cc(OC2CCCC2)c(O)cc1OCCCCCC(C)(C)c1nn[nH]n1 [sodium salt] | 77.6 nM | –
4 | CCCc1c(OCCCOc2cc(O)c(OCC)cc2CC)ccc2c1OC(C(=O)O)CC2 (stereo not shown) [Example 10, 3,4-Dihydro-8-propyl-7-[3-(2-ethyl-5-hydroxy-4-ethoxy-phenoxy)propoxy]-2H-1-benzopyran-2-carboxylic acid] | 1.29 nM | 4.2 nM
5 | CCCCCOc1cc(CC)c(OCCCCCC(C)(C)c2nn[nH]n2)cc1O [sodium salt] | 21.4 nM | –
6 | CCc1cc(OCc2ccc(F)cc2)c(O)cc1OCCCCCC(C)(C)c1nn[nH]n1 [sodium salt] | 110 nM | –
7 | CCc1cc(OC(C)C)c(O)cc1OCCCCCC(C)(C)c1nn[nH]n1 [sodium salt] | 40.7 nM | –
8 | CCCc1c(OCCCOc2cc(O)c(OC)cc2CC)ccc2c1OC(C(=O)O)CC2 (stereo not shown) [Example 9, 3,4-Dihydro-8-propyl-7-[3-(2-ethyl-5-hydroxy-4-methoxy-phenoxy)propoxy]-2H-1-benzopyran-2-carboxylic acid] | 1.51 nM | 2.9 nM
9 | CCc1cc(OCCC(C)C)c(O)cc1OCCCCCC(C)(C)c1nn[nH]n1 [sodium salt] | 74.1 nM | –
10 | CCc1cc(Sc2ccccc2)c(O)cc1OCCCCCC(C)(C)c1nn[nH]n1 [disodium salt] | 219 nM | 885 nM
